According to the supplement of paper PMC10307832:

Legend:
Assay in all cases: relative viability (nuclei count vs DMSO), 5 days (fraction); higher = more cells survive
ALW-II-49-7 = compound: Cc1ccc(C(=O)Nc2cccc(C(F)(F)F)c2)cc1Nc1cncc(C(N)=O)c1 [ALW-II-49-7]
Procedure, shortened: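 In 1536-well plates, lung cancer cell lines rested overnight at 37 °C before five library-drug doses (not always all listed), √10 apart, were pinned onto vehicle-anchored plates. Nuclei were counted with MetaXpress from 4× Hoechst images taken after 5 days without medium change. Viability compares treated-well with vehicle-well nuclei as a median over plates, and plates needed control CV below 25% plus at least one doubling to pass.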

XMD13-2 + Alpelisib = compound: C1CC1C(=O)NC2=NNC3=C2C=CC(=C3)C4=CC(=CC=C4)C(=O)NC5CC5 [XMD13-2] + Cc1nc(NC(=O)N2CCC[C@H]2C(N)=O)sc1-c1ccnc(C(C)(C)C(F)(F)F)c1 [Alpelisib] (partner 2 µM)
Procedure, shortened: (§1)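 Lung cancer cell lines, seeded in 1536-well plates, were treated the following day by pin tool with a single drug or with five library-drug doses (not always all listed) in √10 steps on top of a fixed anchor-drug dose. Cells were fixed and nuclei stained in one step after 5 days, and nuclei were counted. Relative viability is the nuclei count for treated wells divided by that for vehicle wells, reported as medians of duplicate plates.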

ALW-II-49-7 + Trametinib = compound: Cc1ccc(C(=O)Nc2cccc(C(F)(F)F)c2)cc1Nc1cncc(C(N)=O)c1 [ALW-II-49-7] + CC(=O)Nc1cccc(-n2c(=O)n(C3CC3)c(=O)c3c(Nc4ccc(I)cc4F)n(C)c(=O)c(C)c32)c1 [Trametinib] (partner 0.02 µM)
Procedure, shortened: as §1

ALW-II-49-7 + AZD7762 = compound: Cc1ccc(C(=O)Nc2cccc(C(F)(F)F)c2)cc1Nc1cncc(C(N)=O)c1 [ALW-II-49-7] + NC(=O)Nc1cc(-c2cccc(F)c2)sc1C(=O)N[C@H]1CCCNC1 [AZD7762] (partner 0.2 µM)
Procedure, shortened: as §1

Cell Line | relative viability (ALW-II-49-7; 0.08 µM) | relative viability (ALW-II-49-7; 0.253 µM) | relative viability (ALW-II-49-7; 0.8 µM) | relative viability (ALW-II-49-7; 2.53 µM) | relative viability (ALW-II-49-7; 8 µM) | relative viability (XMD13-2 + Alpelisib; first compound 0.05 µM) | relative viability (XMD13-2 + Alpelisib; first compound 0.1581 µM) | relative viability (XMD13-2 + Alpelisib; first compound 0.5 µM) | relative viability (XMD13-2 + Alpelisib; first compound 1.581 µM) | relative viability (XMD13-2 + Alpelisib; first compound 5 µM) | relative viability (ALW-II-49-7 + Trametinib; first compound 0.08 µM) | relative viability (ALW-II-49-7 + Trametinib; first compound 0.253 µM) | relative viability (ALW-II-49-7 + Trametinib; first compound 0.8 µM) | relative viability (ALW-II-49-7 + Trametinib; first compound 2.53 µM) | relative viability (ALW-II-49-7 + Trametinib; first compound 8 µM) | relative viability (ALW-II-49-7 + AZD7762; first compound 0.08 µM) | relative viability (ALW-II-49-7 + AZD7762; first compound 0.253 µM) | relative viability (ALW-II-49-7 + AZD7762; first compound 0.8 µM) | relative viability (ALW-II-49-7 + AZD7762; first compound 2.53 µM) | relative viability (ALW-II-49-7 + AZD7762; first compound 8 µM)
LC-2-ad | 0.942 | 1.03 | 0.922 | 1.08 | 0.861 | 0.983 | 0.887 | 0.939 | 0.938 | 0.79 | 0.94 | 0.917 | 0.881 | 0.858 | 0.945 | 0.844 | 0.824 | 0.756 | 0.805 | 0.93
LCLC-97TM1 | 0.97 | 0.905 | 1.09 | 0.755 | 0.865 | 0.214 | 0.262 | 0.225 | 0.206 | 0.146 | 0.184 | 0.207 | 0.198 | 0.161 | 0.223 | 0.228 | 0.418 | 0.328 | 0.156 | 0.179
LCLC-103H | 0.983 | 0.987 | 0.971 | 0.953 | 0.969 | 0.91 | 0.979 | 0.981 | 0.959 | 0.851 | 0.667 | 0.748 | 0.735 | 0.712 | 0.677 | 0.742 | 0.817 | 0.756 | 0.649 | 0.656
LK-2 | 1.03 | 0.971 | 1 | – | 0.926 | 1.33 | 0.998 | 0.98 | 1.04 | 1.02 | 0.963 | 0.583 | 0.636 | – | 0.479 | 0.447 | 0.437 | 0.427 | – | 0.332
LOU-NH91 | 0.939 | 1.03 | 0.951 | 0.654 | 0.837 | 0.783 | 0.759 | 0.72 | 0.659 | 0.796 | 0.755 | 0.787 | 0.804 | – | 0.706 | 0.567 | 0.774 | 0.782 | – | 0.596
LU99A | 0.816 | 1.1 | 0.902 | 0.94 | 0.95 | 0.553 | 0.491 | 0.561 | 0.446 | 0.335 | – | 0.622 | 0.62 | 0.374 | 0.399 | – | 0.376 | 0.294 | 0.312 | 0.626
LXF-289 | 0.931 | 1.04 | 1.02 | 1.06 | 1.05 | 1.09 | 0.982 | 1.08 | 1.05 | 1.04 | 0.604 | 0.715 | 0.681 | 0.67 | 0.626 | 1.08 | 1.11 | 0.981 | 1.26 | 1.22
NCI-H23 | 0.936 | 0.978 | 0.907 | 1.06 | 0.865 | 0.731 | 0.676 | 0.752 | 0.669 | 0.806 | 0.434 | 0.371 | 0.448 | 0.37 | 0.37 | 0.163 | 0.263 | 0.147 | 0.227 | 0.224
NCI-H322M | 0.879 | 1.08 | 0.957 | 0.906 | 0.805 | 0.833 | 0.716 | 0.71 | 0.793 | 0.872 | 0.484 | 0.533 | 0.506 | 0.472 | 0.515 | 0.557 | 0.584 | 0.484 | 0.698 | 0.481
NCI-H358 | 0.891 | 0.956 | 0.924 | 1.01 | 1.07 | 1.06 | 0.774 | 0.843 | 0.822 | 0.529 | 0.117 | 0.123 | 0.142 | 0.14 | 0.119 | 0.51 | 0.711 | 0.405 | – | 0.524
NCI-H441 | 1.2 | 0.868 | 0.913 | 0.902 | 0.762 | 0.675 | 1.15 | 0.649 | 0.801 | 0.547 | 0.41 | 0.494 | 0.381 | 0.69 | 0.443 | 1.18 | 1.24 | 1.07 | 0.817 | 1.1
NCI-H460 | 1 | 1.07 | 0.944 | 1.02 | 0.882 | 0.653 | 0.586 | 0.498 | 0.468 | 0.492 | 0.133 | 0.17 | 0.142 | 0.118 | 0.101 | 0.567 | 0.863 | 0.663 | 0.665 | 0.456
NCI-H596 | 0.913 | 0.988 | 0.941 | 0.893 | 0.829 | 0.624 | 0.543 | 0.407 | 0.587 | 0.0287 | 0.684 | 0.786 | 0.769 | 0.791 | 0.912 | 1.15 | 1.23 | 1.12 | 1.14 | 1.24
NCI-H647 | 0.904 | 0.944 | 0.926 | 0.967 | 0.795 | 1.31 | 1.22 | 1.14 | 1.05 | 1.22 | 0.434 | 0.475 | 0.453 | 0.441 | 0.239 | 0.348 | 0.402 | 0.419 | – | 0.29
NCI-H650 | 0.992 | 0.997 | 0.841 | 1.03 | 0.647 | 1.21 | 1.2 | 1.43 | 1.18 | 1.15 | 0.876 | 1.16 | 0.993 | 0.996 | 0.929 | 1.02 | 0.967 | 1.05 | 0.866 | 0.678
NCI-H727 | 1.09 | 0.907 | 0.9 | 0.902 | 0.855 | 0.549 | 0.423 | 0.527 | 0.51 | 0.55 | 0.393 | 0.378 | 0.354 | 0.357 | 0.365 | 0.495 | 0.68 | 0.611 | 0.716 | 0.591
